Results: patent US20160244405A1, “COMPOSITIONS AND METHODS FOR THE TREATMENT OF HYPERGLYCEMIA AND METABOLIC SYNDROME” (priority 2015, published 2016)
In brackets after ≈: the same amount, converted by molar mass. Where two headings read alike, the source gives them in different places.

Assay: Water solubility by adding distilled water in portions until a clear solution
Assay type: physicochemical
Details: thermodynamic from solid
Experimental: The Solubility of the Compound of amino(3,3-dimethylguanidino)methaniminium (S)-2-((5Z,8Z,11Z,14Z,17Z)-icosa-5,8,11,14,17-pentaenamido)-4-methylpentanoate, Example-1 in Water was Compared with that of Eicosapentaenoic Acid (EPA) Measurement of the water solubility of the test compound was accomplished by using methods well known to those skilled in the art. Specifically, to a weighed amount of the test compounds of Example-1 and EPA were taken in separate vials; distilled water was added in small portions until a clear solution was obtained. The water solubility is calculated by dividing the weight of salt, in mg, by the volume of the solution, in mL. The water solubility of the compounds of example-1 compared to EPA alone were as follows: […]

Row | Compound | solubility (distilled water, weight of salt in mg divided by volume of solution in mL, read-out: water solubility) [mg/mL] | solubility (water) [mg/mL]
1 | CC/C=C\C/C=C\C/C=C\C/C=C\C/C=C\CCCC(=O)O [EPA, eicosapentaenoic acid] | < 0.3 | 
2 | CC/C=C\C/C=C\C/C=C\C/C=C\C/C=C\CCCC(=O)N[C@@H](CC(C)C)C(=O)O [Example-1, amino(3,3-dimethylguanidino)methaniminium (S)-2-((5Z,8Z,11Z,14Z,17Z)-icosa-5,8,11,14,17-pentaenamido)-4-methylpentanoate] |  | 118 (≈ 284 mM)
